Molecules are shown by their SMILES.

The values below come from patent US20110217280A1, “METHODS FOR TREATING NEUROPSYCHIATRIC CONDITIONS” (priority 2007, published 2011).

For experiment [1], the system named is double transgenic GFP-M/DN-DISC1 mice. The experiment in a line: In vivo monitoring of dendritic spine plasticity by two photon laser scanning microscopy. The note with it: 1 mg/kg i.p. once per day, imaging P40 to P70. An excerpt:
In the following experiment, dendritic spine plasticity is directly monitored in vivo by two photon laser scanning microscopy (TPLSM) in double transgenic GFP-M/DN-DISC1 mice treated with a PAK activator or a placebo. Mice (C57BL/6) expressing GFP in a subset of cortical layer 5 neurons (transgenic line GFP-M described in Feng et al., 2000, Neuron 28:41-51) are crossed with DN-DISC1 C57BL/6 DN-DISC1 mice (Hikida et al (2007), Proc Natl Acad Sci USA, 104(36):14501-14506) to obtain heterozygous transgenic mice, which are then crossed to obtain homozygous double transgenic GFPM/DN-DISC1 mice used in this study.
GFP-M/DN-DISC1 animals aged 28-61 days are anesthetized using avertin ([…]; Sigma, St. Louis, Mo.). The skull is exposed, scrubbed, and cleaned with ethanol. […]
For in vivo two photon imaging, a two-photon laser scanning microscope is used as described in Majewska et al, (2000), Pflügers Arch, 441:398-408. […] Fluorescence is detected using photomultiplier tubes (HC125-02; Hamamatsu, Shizouka, Japan) in whole-field detection mode. The craniotomy over the visual cortex is initially identified under whole-field fluorescence illumination, and areas with superficial dendrites are identified using a 20×, 0.95 numerical aperture lens (IR2; Olympus Optical). […]

The next experiment addresses PAK1 (Homo sapiens, UniProt Q13153). The note with it: independent of GTPase activators such as Cdc42 or Rac; cited from earlier work.

Sequence of PAK1 (Q13153 whole entry): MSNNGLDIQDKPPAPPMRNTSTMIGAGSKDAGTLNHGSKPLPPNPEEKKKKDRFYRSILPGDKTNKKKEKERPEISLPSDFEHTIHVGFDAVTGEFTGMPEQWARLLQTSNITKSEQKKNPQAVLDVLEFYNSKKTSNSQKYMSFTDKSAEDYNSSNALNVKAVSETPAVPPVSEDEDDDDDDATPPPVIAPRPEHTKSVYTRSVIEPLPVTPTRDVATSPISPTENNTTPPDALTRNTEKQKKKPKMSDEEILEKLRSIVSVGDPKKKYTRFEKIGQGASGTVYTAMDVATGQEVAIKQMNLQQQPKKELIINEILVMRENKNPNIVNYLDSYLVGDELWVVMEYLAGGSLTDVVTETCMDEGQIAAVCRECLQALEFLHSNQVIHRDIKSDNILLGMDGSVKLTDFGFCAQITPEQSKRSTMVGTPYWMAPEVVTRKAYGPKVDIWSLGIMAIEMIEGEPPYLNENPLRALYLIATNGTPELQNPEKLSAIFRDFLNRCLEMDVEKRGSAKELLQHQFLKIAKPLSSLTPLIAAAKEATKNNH

In the case of `CCCCCCCCCCCCCC=CC(O)C(N)CO` (stereo not drawn) [sphingosine, 2-amino-4-octadecene-1,3-diol], in experiment [1], the “spine density relative to untreated control animals” value is given as “increased spine density” and the “spine turnover relative to untreated control animals” value is on record as “reduced spine turnover”. The “activation of PAK1” value on PAK1 was “activate PAK1 independently of GTPase activators”.
